Where a name gives a salt, the structure may show the parent alone. Read-outs that look alike come from different tables or passages of the source. One block for each compound: values may come before it.
What was measured:
HCT-116 cell line = experiment: Inhibition of cell growth, tetrazolium salt (MTT) assay; type: cell-based; conditions: for HCT-116 % Inhibition at 0.25 μM: 0.25 μM compound; for IC50: Homo sapiens, HCT-116, 120 h, MTT, three to five days, read-out: HCT-116 IC50
Summary of the method: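 Cells in McCoy's 5A medium were left 4 h, then given graded compound concentrations in 0.5% (v/v) DMSO and incubated three to five days at 37° C (5% CO2). MTT was added to 0.2 mg/mL for 4 h more; DMSO-solubilized formazan was read at 540 nm against 0.5% DMSO-only controls.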

[1] = target: human CDK4 and genetically truncated (1-264) cyclin D3 (Homo sapiens, UniProt P11802); experiment: Inhibition of CDK4/Cyclin D Retinoblastoma Kinase Activity; type: biochemical; conditions: for Ki: apparent Ki, CDK4/truncated cyclin D3, Rb fragment substrate, 25 μM ATP
Summary of the method: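 Apparent Ki values derive from fitting activity at varied inhibitor concentrations to a competitive (or competitive tight-binding) model. Kinase reactions used 5 nM CDK4/cyclin D3(1-264), Rb fragment substrate and 25 μM ATP. Incubation ran 20 min at 30 °C, extended to 60 min under linear conditions for tight binders.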

CDK2/Cyclin A = CDK2/Cyclin A (Homo sapiens, UniProt P24941); experiment: Inhibition of CDK2/Cyclin A Retinoblastoma Kinase Activity; type: biochemical; conditions: for Ki: apparent Ki, CDK2/proteolyzed cyclin A, Rb fragment substrate, 25 μM ATP
Summary of the method: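 Percent inhibition is calculated against DMSO-only wells after subtracting no-enzyme background. The enzyme is human CDK2 complexed with proteolyzed cyclin A, used at 10 nM or 19 nM on an Rb fragment with 25 μM [32/33P]ATP, at pH 7.4 and 30° C.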

[2] = 0.1 μM compound, HCT-116, Table 4
[3] = 0.1 μM compound, HCT-116, Table 3

human CDK4 and genetically truncated (1-264) cyclin D3, sequence (P11802 whole entry, the tested form may be a part): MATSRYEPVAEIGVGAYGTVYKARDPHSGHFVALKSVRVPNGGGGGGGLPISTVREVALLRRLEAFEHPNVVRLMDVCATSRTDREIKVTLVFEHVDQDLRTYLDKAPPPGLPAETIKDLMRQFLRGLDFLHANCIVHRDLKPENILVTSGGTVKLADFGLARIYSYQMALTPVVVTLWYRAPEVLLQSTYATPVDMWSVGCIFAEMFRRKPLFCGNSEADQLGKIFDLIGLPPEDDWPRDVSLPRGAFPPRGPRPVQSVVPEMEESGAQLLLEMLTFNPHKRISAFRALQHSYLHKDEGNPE
human CDK4 and genetically truncated (1-264) cyclin D3, sequence (P30281 1-264 partner): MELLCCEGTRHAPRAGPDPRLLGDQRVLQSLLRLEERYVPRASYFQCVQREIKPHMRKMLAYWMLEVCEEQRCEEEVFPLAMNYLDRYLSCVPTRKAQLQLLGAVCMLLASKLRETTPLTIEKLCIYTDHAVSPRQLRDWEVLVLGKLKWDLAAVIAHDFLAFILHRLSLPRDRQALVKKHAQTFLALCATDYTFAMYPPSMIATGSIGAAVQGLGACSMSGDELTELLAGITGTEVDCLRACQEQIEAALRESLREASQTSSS

Structure (SMILES): Nc1nc(NC2CCN(C(=O)c3ccc(Cl)cc3)CC2)sc1C(=O)c1c(F)cccc1F [Example Q27]
HCT-116 % Inhibition at 0.1 μM (HCT-116 cell line; [2]): 4% | HCT-116 % Inhibition at 0.25 μM (HCT-116 cell line; HCT-116, Table 4): 40% | CDK4 % Inhibition at 0.03 μM ([1]; 0.03 μM compound, Table 4): 76% | CDK2 % Inhibition at 0.03 μM (CDK2/Cyclin A; 0.03 μM compound, Table 4): 32%

Structure (SMILES): Nc1nc(NC2CCN(C(=O)C3CCCCC3)CC2)sc1C(=O)c1c(F)cccc1F [Example Q59]
HCT-116 % Inhibition at 0.1 μM (HCT-116 cell line; [2]): 0% | HCT-116 % Inhibition at 0.25 μM (HCT-116 cell line; HCT-116, Table 4): 30% | CDK4 % Inhibition at 0.03 μM ([1]; 0.03 μM compound, Table 4): 14% | CDK2 % Inhibition at 0.03 μM (CDK2/Cyclin A; 0.03 μM compound, Table 4): 10%

Structure (SMILES): Nc1nc(NC2CCN(S(=O)(=O)c3ccc(CCN4CCOCC4)nc3)CC2)sc1C(=O)c1c(F)cccc1F [Example N3, (4-Amino-2-{1-[6-(2-morpholin-4-yl-ethyl)-pyridine-3-sulfonyl]-piperidin-4-ylamino}-thiazol-5-yl)-(2,6-difluoro-phenyl)-methanone Hydrochloride Salt.]
IC50 (HCT-116 cell line; first HCT-116 column (c4)): 170 nM | IC50 (HCT-116 cell line; second HCT-116 column (c5)): > 500 nM | Ki [1]: 0.76 nM | Ki (CDK2/Cyclin A): 1.1 nM

Structure (SMILES): CN(C)CC(=O)N1CCC(Nc2nc(N)c(C(=O)c3c(F)cccc3F)s2)CC1 [Example D2, (4-[4-Amino-5-(2,6-difluoro-benzoyl)-thiazol-2-ylamino}-piperidin-1-yl)-2-dimethylamino-ethanone]
IC50 (HCT-116 cell line; first HCT-116 column (c4)): 1900 nM | IC50 (HCT-116 cell line; second HCT-116 column (c5)): 5000 nM | Ki [1]: 120 nM | Ki (CDK2/Cyclin A): 1300 nM

Structure (SMILES): CCCCOc1ccc(C(C)(C)CC)cc1S(=O)(=O)N1CCC(Nc2nc(N)c(C(=O)c3c(F)cccc3F)s2)CC1 [Example P74]
HCT-116 % Inhibition at 0.1 μM (HCT-116 cell line; [3]): 19% | HCT-116 % Inhibition at 0.25 μM (HCT-116 cell line; HCT-116, Table 3): 27% | CDK4 % Inhibition at 0.03 μM ([1]; 0.03 μM compound, Table 3): 4% | CDK2 % Inhibition at 0.03 μM (CDK2/Cyclin A; 0.03 μM compound, Table 3): −30%

Structure (SMILES): Nc1nc(NC2CCN(S(=O)(=O)c3ccc(OCCN4CCCC4)nc3)CC2)sc1C(=O)c1c(F)cccc1F [Example H5, 1-(4-Amino-2-{1-[6-(2-pyrrolidin-1-yl-ethoxy)-pyridine-3-sulfonyl]-piperidin-4-ylamino}-thiazol-5-yl)-1-(2,6-difluoro-phenyl)-methanone Trifluoroacetic Acid Salt]
IC50 (HCT-116 cell line; first HCT-116 column (c4)): 71 nM | IC50 (HCT-116 cell line; second HCT-116 column (c5)): > 500 nM | Ki [1]: 0.39 nM | Ki (CDK2/Cyclin A): 1.1 nM

Structure (SMILES): Nc1nc(NC2CCN(S(=O)(=O)c3ccc(Cl)cc3)CC2)sc1C(=O)c1c(F)cccc1F [Example P14]
HCT-116 % Inhibition at 0.1 μM (HCT-116 cell line; [3]): 23% | HCT-116 % Inhibition at 0.25 μM (HCT-116 cell line; HCT-116, Table 3): 25% | CDK4 % Inhibition at 0.03 μM ([1]; 0.03 μM compound, Table 3): 67% | CDK2 % Inhibition at 0.03 μM (CDK2/Cyclin A; 0.03 μM compound, Table 3): 60%

Continued, in another order:

CDK4 % Inhibition at 0.03 μM ([1]; at 0.03 μM): 21% | CDK2 % Inhibition at 0.03 μM (CDK2/Cyclin A; at 0.03 μM): 19%
Structure (SMILES): Nc1nc(NC2CCN(C(=O)c3ccc(C(F)(F)F)cc3F)CC2)sc1C(=O)c1c(F)cccc1F [Example R35]
HCT-116 % Inhibition at 0.1 μM (HCT-116 cell line; HCT-116 cells, at 0.1 μM): 0% | HCT-116 5 Inhibition at 0.25 μM (HCT-116 cell line; HCT-116 cells): 49

CDK4 % Inhibition at 0.03 μM ([1]; at 0.03 μM): 55% | CDK2 % Inhibition at 0.03 μM (CDK2/Cyclin A; at 0.03 μM): 34%
Structure (SMILES): COc1c(C(=O)N2CCC(Nc3nc(N)c(C(=O)c4c(F)cccc4F)s3)CC2)csc1Cl [Example R49]
HCT-116 % Inhibition at 0.1 μM (HCT-116 cell line; HCT-116 cells, at 0.1 μM): 0% | HCT-116 5 Inhibition at 0.25 μM (HCT-116 cell line; HCT-116 cells): 61

CDK4 % Inhibition at 0.03 μM ([1]; at 0.03 μM): 73% | CDK2 % Inhibition at 0.03 μM (CDK2/Cyclin A; at 0.03 μM): 66%
Structure (SMILES): Nc1nc(NC2CCN(C(=O)c3cc4ccccc4s3)CC2)sc1C(=O)c1c(F)cccc1F [Example R17]
HCT-116 % Inhibition at 0.1 μM (HCT-116 cell line; HCT-116 cells, at 0.1 μM): 0% | HCT-116 5 Inhibition at 0.25 μM (HCT-116 cell line; HCT-116 cells): 45

CDK4 % Inhibition at 0.03 μM ([1]; at 0.03 μM): 27% | CDK2 % Inhibition at 0.03 μM (CDK2/Cyclin A; at 0.03 μM): 16%
Structure (SMILES): CC(C)(Oc1ccc(Cl)cc1)C(=O)N1CCC(Nc2nc(N)c(C(=O)c3c(F)cccc3F)s2)CC1 [Example R66]
HCT-116 % Inhibition at 0.1 μM (HCT-116 cell line; HCT-116 cells, at 0.1 μM): 0.54% | HCT-116 5 Inhibition at 0.25 μM (HCT-116 cell line; HCT-116 cells): 42

CDK4 % Inhibition at 0.03 μM ([1]; at 0.03 μM): 63% | CDK2 % Inhibition at 0.03 μM (CDK2/Cyclin A; at 0.03 μM): 50%
Structure (SMILES): Cc1ccc(C(=O)N2CCC(Nc3nc(N)c(C(=O)c4c(F)cccc4F)s3)CC2)cc1 [Example R154]
HCT-116 % Inhibition at 0.1 μM (HCT-116 cell line; HCT-116 cells, at 0.1 μM): 0% | HCT-116 5 Inhibition at 0.25 μM (HCT-116 cell line; HCT-116 cells): 27

CDK4 % Inhibition at 0.03 μM ([1]; at 0.03 μM): 10% | CDK2 % Inhibition at 0.03 μM (CDK2/Cyclin A; at 0.03 μM): −5%
Structure (SMILES): Nc1nc(NC2CCN(C(=O)CC3CCCCC3)CC2)sc1C(=O)c1c(F)cccc1F [Example R100]
HCT-116 % Inhibition at 0.1 μM (HCT-116 cell line; HCT-116 cells, at 0.1 μM): 0% | HCT-116 5 Inhibition at 0.25 μM (HCT-116 cell line; HCT-116 cells): 49

Reference: patent US20050101595A1, “N-containing cycloalkyl-substituted amino-thiazole derivatives and pharmaceutical compositions for inhibiting cell proliferation and methods for their use” (PFIZER INC., priority 2003, published 2005)
